Assay results from PubChem BioAssay AID463203 (Broad Institute, 2010).
Calls of active or inactive are those of the source.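 How the source made its calls: active means more than half of replicate measurements showing over 20% loss of kinase signal relative to plate controls; inconclusive means some but at most half of replicates over 20% loss; inactive means no replicate over 20% signal loss.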

Target: Glycogen synthase kinase-3 alpha (Homo sapiens) (UniProt P49840)
Assay: concentration-response blocking of human GSK3A – biochemical, luminescence, cell-free homogeneous, retest, dose response (AID 463203)
Conditions: GSK-3 alpha enzyme, ADP-Glo luminescence, 60 min

Sequence of Glycogen synthase kinase-3 alpha (Homo sapiens) (P49840 whole entry, looked up): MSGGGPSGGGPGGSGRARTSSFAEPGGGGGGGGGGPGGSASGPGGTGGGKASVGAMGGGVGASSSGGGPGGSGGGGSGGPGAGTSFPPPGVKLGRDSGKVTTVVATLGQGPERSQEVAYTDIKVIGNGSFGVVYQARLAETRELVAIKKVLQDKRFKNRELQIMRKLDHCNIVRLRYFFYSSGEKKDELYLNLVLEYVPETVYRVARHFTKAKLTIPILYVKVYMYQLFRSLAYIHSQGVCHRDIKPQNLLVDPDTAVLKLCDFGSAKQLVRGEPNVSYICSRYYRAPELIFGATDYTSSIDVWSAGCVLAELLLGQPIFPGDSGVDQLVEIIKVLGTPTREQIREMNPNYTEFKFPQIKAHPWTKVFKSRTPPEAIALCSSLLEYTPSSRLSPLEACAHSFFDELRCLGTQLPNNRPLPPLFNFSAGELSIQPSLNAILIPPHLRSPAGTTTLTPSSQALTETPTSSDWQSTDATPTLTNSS

Question: Which AC50 does the source give for `CC(=O)Nc1ccc(-c2csc(NCc3ccccc3)n2)cc1` here?
Answer: > 30 µM (inactive)

Question: How did the AC50 turn out when `Cc1cc2c(C)c(C)c(=O)[nH]c2cc1N` was run?
Answer: > 30 µM (inactive)

Question: With `CCCCC(=O)Nc1ccc2c(c1)C(=O)NC2=O` as the compound, how does the AC50 read?
Answer: 15.6 µM

Question: How did the AC50 turn out when `COc1cc(NC(=O)c2nnn(Cc3ccc(SC)cc3)c2N)cc(OC)c1` was run?
Answer: 13.6 µM

Question: For `CC(C)CC(=O)NC(=S)Nc1sc2c(c1C(N)=O)CCC2`, which AC50 is on record?
Answer: > 30 µM (inactive)

Question: For `CCSc1nc2sc3c(c2c(=O)n1CC)CC(C)(C)OC3`, which AC50 is on record?
Answer: > 30 µM (inactive)

Question: `N#CC1=C2SCN(c3ccc(F)cc3)CN2C(=O)CC1c1cccc(F)c1` (stereo not given) was tested. Which AC50 did it give?
Answer: 29.4 µM

Question: For `CCN1C(=O)/C(=C\c2ccco2)C(C(=O)OC)=C1C`, which AC50 is on record?
Answer: > 30 µM (inactive)

Question: Which AC50 does the source give for `CC(C)N=C(NC#N)SCc1ccc(F)cc1` here?
Answer: > 30 µM (inactive)

Question: Which AC50 does the source give for `Cc1ccc(C2C3=C(CCCC3=O)Nc3[nH]c(=S)[nH]c(=O)c32)cc1` (stereo not given) here?
Answer: > 30 µM (inactive)

Question: For `CC1(C)CC(=O)c2cnc(NCC3CCCO3)nc2C1` (stereo not given), which AC50 is on record?
Answer: > 30 µM (inactive)

Question: `O=C(c1ccc2c3n(nc2c1)-c1ccccc1CO3)N1CCCCC1` was tested. Which AC50 did it give?
Answer: 26.4 µM

Question: Which AC50 does the source give for `CC1(C)CC(=O)C2=C(C1)Nc1[nH]n(-c3ccccc3)c(=O)c1C2c1ccc2c(c1)OCO2` (stereo not given) here?
Answer: > 30 µM (inactive)

Question: For `CCOC(=O)c1cc(C)[nH]c1C`, which AC50 is on record?
Answer: > 30 µM (inactive)

Question: With `CCCC(NS(=O)(=O)c1ccc(OC)cc1)C(=O)O` (stereo not given) as the compound, how does the AC50 read?
Answer: > 30 µM (inactive)

Question: `Fc1ccccc1/C=N/Nc1cc(N2CCCCC2)ncn1` was tested. Which AC50 did it give?
Answer: > 30 µM (inactive)

Question: With `CC(=O)Oc1ccc(C(=O)c2ccccc2)c(OC(C)=O)c1` as the compound, how does the AC50 read?
Answer: > 30 µM (inactive)

Question: For `COc1ccc(CC(=O)N2CCOCC2)cc1`, which AC50 is on record?
Answer: > 30 µM (inactive)

Question: Which AC50 does the source give for `CCOc1c(O)ccc(/C=C2\SC(=S)NC2=O)c1[N+](=O)[O-]` here?
Answer: 20.8 µM

Question: Which AC50 does the source give for `CCOC(=O)C1CCCN(Cc2sccc2C)C1` (stereo not given) here?
Answer: > 30 µM (inactive)

Question: `O=c1[nH]c2c(s1)C(c1ccco1)C1C3CCC(C3)C1S2` (stereo not given) was tested. Which AC50 did it give?
Answer: 15.3 µM

Question: `COc1ccc(-c2noc(CSc3nc(-c4ccccc4)cc(=O)[nH]3)n2)cc1OC` was tested. Which AC50 did it give?
Answer: > 30 µM (inactive)

Question: `Clc1ccc(-c2noc(COc3ccccc3)n2)cc1` was tested. Which AC50 did it give?
Answer: > 30 µM (inactive)

Question: With `COC(=O)c1sccc1-c1ccc(C(N)=O)o1` as the compound, how does the AC50 read?
Answer: 26.8 µM

Question: `COc1ccc(C(=O)OCC(=O)Nc2c(C)n(C)n(-c3ccccc3)c2=O)cc1` was tested. Which AC50 did it give?
Answer: > 30 µM (inactive)

Question: For `CCN1CCN(c2nc(N)c([N+](=O)[O-])c(Nc3ccc(C)c(C)c3)n2)CC1`, which AC50 is on record?
Answer: > 30 µM (inactive)

Question: With `Nc1nc(NCCc2ccccc2)nc(NCc2ccccc2)c1[N+](=O)[O-]` as the compound, how does the AC50 read?
Answer: 1.66 µM

Question: Which AC50 does the source give for `COc1ccc(/C=N/NC(=O)c2nnn(-c3nonc3N)c2CN(C)c2ccccc2)cc1` here?
Answer: > 30 µM (inactive)

Question: `Cc1c(C(=O)OC(C)C)[nH]c2c1C(=O)CC(C)(C)C2` was tested. Which AC50 did it give?
Answer: > 30 µM (inactive)

Question: For `COc1cccc(/C=c2\s/c(=C\C(=O)C(C)(C)C)[nH]c2=O)c1`, which AC50 is on record?
Answer: > 30 µM (inactive)

Question: `CCNc1ccccc(C(=O)/C=C/c2ccc3c(c2)OCO3)c1=O` was tested. Which AC50 did it give?
Answer: > 30 µM (inactive)

Question: `CC(=NCCCn1ccnc1)c1c(O)n(C)c(=O)n(C)c1=O` was tested. Which AC50 did it give?
Answer: > 30 µM (inactive)

Question: Which AC50 does the source give for `CC(=O)Nc1ccc(OC(=O)CC2SC(=O)NC2=O)cc1` (stereo not given) here?
Answer: > 30 µM (inactive)

Question: `CCOc1ccccc1-n1c(O)c(C=NCc2ccc3c(c2)OCO3)c(=O)[nH]c1=O` was tested. Which AC50 did it give?
Answer: 17.5 µM

Question: `CCOC(=O)C(CC)Sc1ccc2nnc(-c3cccnc3)n2n1` (stereo not given) was tested. Which AC50 did it give?
Answer: > 30 µM (inactive)

Question: For `S=c1[nH]nc(-c2cc3c(s2)-c2ccccc2CC3)o1`, which AC50 is on record?
Answer: 22.9 µM

Question: With `O=C(NCC1CCN(Cc2ccccc2Cl)CC1)Nc1cccc(Cl)c1` as the compound, how does the AC50 read?
Answer: > 30 µM (inactive)

Question: `CC(C)(C)OC(=O)N1CCN(C(=O)c2[nH]cnc2C(=O)Nc2ccon2)CC1` was tested. Which AC50 did it give?
Answer: > 30 µM (inactive)

Question: For `O=C(NC(=S)NCC1COc2ccccc2O1)c1ccccc1` (stereo not given), which AC50 is on record?
Answer: > 30 µM (inactive)

Question: For `C[C@H]1CN([C@@H](C)CO)C(=O)c2cccc(NC(=O)c3cnccn3)c2O[C@@H]1CN(C)S(=O)(=O)c1ccc(F)cc1`, which AC50 is on record?
Answer: 7.19 µM

Question: How did the AC50 turn out when `Nc1nc(N)nc(-c2cc(O)ccc2O)n1` was run?
Answer: 11.8 µM

Question: With `OCc1nnn(-c2ccccc2)c1CO` as the compound, how does the AC50 read?
Answer: > 30 µM (inactive)

Question: How did the AC50 turn out when `Cc1ccc2c(c1N)C(=O)c1ccccc1C2=O` was run?
Answer: > 30 µM (inactive)

Question: How did the AC50 turn out when `Cc1cc(-c2ccccc2)c2c3c(c(-c4ccccc4)n2n1)c(=O)n(C)c(=O)n3C` was run?
Answer: > 30 µM (inactive)

Question: Which AC50 does the source give for `Cc1nc(SCC(=O)N(CC(C)C)C2CCS(=O)(=O)C2)c2ccccc2n1` (stereo not given) here?
Answer: > 30 µM (inactive)

Question: With `Cc1cc(/C=N/O)c(C)n1-c1ccc(Br)cc1` as the compound, how does the AC50 read?
Answer: > 30 µM (inactive)

Question: How did the AC50 turn out when `CCN1CCN(c2nc(Nc3ccccc3F)nc(N)c2[N+](=O)[O-])CC1` was run?
Answer: > 30 µM (inactive)

Question: For `CC(CC(=O)Nc1ncc([N+](=O)[O-])s1)c1ccccc1` (stereo not given), which AC50 is on record?
Answer: 5.94 µM

Question: `COc1ccc(Cl)cc1C(=O)Nc1ccc(NC(=O)c2ccco2)cc1` was tested. Which AC50 did it give?
Answer: > 30 µM (inactive)

Question: With `COc1cc(NC(=O)c2cc([N+](=O)[O-])ccc2NC(=O)CNC2CCCCC2C)cc(OC)c1` (stereo not given) as the compound, how does the AC50 read?
Answer: > 30 µM (inactive)

Question: How did the AC50 turn out when `CCOC(=O)/C(C#N)=C/c1cn(CCC(=O)O)nc1-c1cccc(Br)c1` was run?
Answer: > 30 µM (inactive)

Question: `Fc1cccc(/C=N/Nc2ccccn2)c1` was tested. Which AC50 did it give?
Answer: > 30 µM (inactive)

Question: With `C#CCOCCOCCOCCNc1nc(N2CCOCC2)nc(N2CCN(C(=O)[C@H](CCC(=O)O)n3cc([C@@H](N)CCCCN)nn3)CC2)n1` as the compound, how does the AC50 read?
Answer: > 30 µM (inactive)

Question: How did the AC50 turn out when `CCOC(=O)CC(C#N)c1c[nH]c2ccccc12` (stereo not given) was run?
Answer: > 30 µM (inactive)

Question: Which AC50 does the source give for `CCOC(=O)Cc1c[nH]c2ccccc12` here?
Answer: > 30 µM (inactive)

Question: Which AC50 does the source give for `CCOC(=O)N1CC=C2C(C#N)=C(N)C(C#N)(C#N)[C@H](c3cccs3)C2C1` (stereo not given in full) here?
Answer: 23.1 µM

Question: Which AC50 does the source give for `Cc1cccc(NC(=O)COC(=O)c2ccccn2)c1` here?
Answer: > 30 µM (inactive)

Question: How did the AC50 turn out when `C[C@H](NC(=O)c1nc[nH]c1C(=O)NC1CCN(C(=O)OC(C)(C)C)CC1)C(=O)OC(C)(C)C` was run?
Answer: 31.3 µM

Question: Which AC50 does the source give for `COc1cc(/C=N\NC(=O)c2ccc(-c3ccccc3)cc2)cc(Br)c1O` here?
Answer: > 30 µM (inactive)

Question: With `c1csc(CNc2ncnc3sccc23)c1` as the compound, how does the AC50 read?
Answer: > 30 µM (inactive)

Question: For `Cc1cccc(-c2c3c(=O)n(C)c(=O)n(C)c3c3cccnn23)c1`, which AC50 is on record?
Answer: > 30 µM (inactive)

Question: `Nc1nonc1-n1nnc(C(=O)N/N=C/c2cccs2)c1CSc1ccccc1` was tested. Which AC50 did it give?
Answer: > 30 µM (inactive)

Question: `Cc1cccc(OCC(=O)Nc2ccc3c(c2)C(=O)NC3=O)c1` was tested. Which AC50 did it give?
Answer: > 30 µM (inactive)

Question: How did the AC50 turn out when `Cc1ccc(N=Nc2c(O)[nH]c3ccc(F)cc23)cc1` was run?
Answer: > 30 µM (inactive)

Question: How did the AC50 turn out when `CCn1c(SCC(=O)N/N=C/c2cccs2)nc2ccccc21` was run?
Answer: > 30 µM (inactive)

Question: For `Clc1ccc(Nc2nc(NCCN3CCOCC3)nc(N3CCOCC3)n2)cc1`, which AC50 is on record?
Answer: > 30 µM (inactive)

Question: `CCOC(=O)c1cc(CC)sc1NC(=O)COC(=O)c1ccccn1` was tested. Which AC50 did it give?
Answer: > 30 µM (inactive)

Question: With `COc1ccccc1/C=C1\S/C(=N/NC(=O)c2cccc(Br)c2)NC1=O` as the compound, how does the AC50 read?
Answer: > 30 µM (inactive)

Question: For `O=C1NC(=Nc2ccccc2Cl)S/C1=C\c1cc([N+](=O)[O-])ccc1O`, which AC50 is on record?
Answer: 3.23 µM

Question: For `COc1ccccc1C(=O)NNC(=O)c1cccc(F)c1`, which AC50 is on record?
Answer: > 30 µM (inactive)

Question: With `Cc1cc(OC(=O)c2c(C)cc(O)cc2O)cc(O)c1C(=O)O` as the compound, how does the AC50 read?
Answer: 27.8 µM

Question: How did the AC50 turn out when `CC(C)(C)OC(=O)N1CCC(NC(=O)c2nc[nH]c2C(=O)NC2CCN(C(=O)OC(C)(C)C)CC2)CC1` was run?
Answer: > 30 µM (inactive)

Question: For `COc1ccc(C2=Nn3c(nnc3-c3ccccc3)SC2)cc1OC`, which AC50 is on record?
Answer: > 30 µM (inactive)

Question: `Cc1sc(NC(=S)NC(=O)C(C)(C)C)c(C(N)=O)c1C` was tested. Which AC50 did it give?
Answer: > 30 µM (inactive)

Question: For `C/C(=N\NC(=O)c1ccccc1NC(=O)c1ccc(Cl)cc1)c1ccncc1`, which AC50 is on record?
Answer: 12.6 µM
